Test results as given in patent US20080234347A1, “METHOD FOR TREATING CB2 RECEPTOR MEDIATED PAIN” (priority 2007, published 2008).

Key:
[1] = molecular target: T1, CB2 receptor (Rattus norvegicus, UniProt Q9QZN9); conditions: background literature statement; cited from earlier work
T1 sequence (Q9QZN9 1-360): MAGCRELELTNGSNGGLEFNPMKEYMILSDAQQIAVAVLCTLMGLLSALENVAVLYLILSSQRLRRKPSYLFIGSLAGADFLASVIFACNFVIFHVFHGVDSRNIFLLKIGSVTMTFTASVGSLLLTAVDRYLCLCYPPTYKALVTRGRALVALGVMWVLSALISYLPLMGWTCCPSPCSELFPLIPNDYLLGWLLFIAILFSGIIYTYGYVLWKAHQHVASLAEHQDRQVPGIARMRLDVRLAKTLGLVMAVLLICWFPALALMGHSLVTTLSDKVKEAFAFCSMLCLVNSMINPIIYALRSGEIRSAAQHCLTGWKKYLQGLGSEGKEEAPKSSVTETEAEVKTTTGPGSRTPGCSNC

[2] = test system: Male CD-1 mice; assay: Hot-plate nociception test; format: in vivo, mouse; conditions: 30 min after dosing, 48° C. hot plate, cut-off 90 sec, ± SEM
Excerpt: The hot-plate test originally described by Eddy and Leimbach (J. Pharmacol. Exp. Ther. 107:385-393, 1953) with minor modifications (e.g., O'Callaghan and Holtzman, J. Pharmacol. Exp. Ther. 192: 497-505, 1975) was used to ascertain the analgesic potential of investigated compounds. The hot plate analgesia meter used for these studies was produced by Columbus Instruments International (Columbus, Ohio).
Male CD-1 mice (30-35 g) were weighed, placed in a plastic box with wood chips and allowed to acclimate before testing. An individual mouse was placed on a 48° C. heated surface and locomotion on the plate was constrained by a glass cylinder. The time interval between placement and a shaking, licking or tucking of either hind-paw (nociceptive response) was recorded as the Baseline measurement. Animals were removed from the heated plate immediately after responding or after a maximum of 40 sec to prevent tissue damage. Each mouse was tested only once.
One treatment group (9 animals each) was then injected i.p. with vehicle (5% DMSO and 5% Tween-80 in sterile saline). The other treatment groups (8 animals each) were injected i.p. with 10 or 30 mg/kg Compound I. Thirty minutes after test compound administration, each animal was assessed for a response with a maximum cut-off of 90 sec. […]

[3] = test system: male Sprague-Dawley rats; assay: Carrageenan model of inflammatory pain, radiant heat paw withdrawal, compound given after carrageenan (Example 2); format: in vivo, rat; conditions: read thirty minutes after compound, mean ± SEM
Protocol: (§1) To assess the ability of test compounds to reverse thermal hyperalgesia, baseline response latencies on a radiant heat (RH) paw stimulator were obtained before an intraplantar injection of carrageenan-λ (200 μL) in male Sprague-Dawley rats (250-350 g in treatment groups of […] each). Only withdrawal responses that were quick hind paw movements (with or without licking of the hind paw) were recorded. Paw movements associated with locomotion or a shifting of weight were not considered a withdrawal response.
(§2) The weight of each animal was recorded on the day of the experiment. Each animal was placed on a warm (approx. body temperature, 30° C.) glass surface and allowed to acclimate to the test chamber for approximately 10-15 minutes. A radiant thermal stimulus (beam of light) was then focused on the sole of each hind paw in turn, and an initial (baseline) response time to thermal stimuli was recorded for each animal. The stimulus intensity (radiant heat at a setting of 5 Amps) that produced 10-15 sec baseline withdrawal latencies was used and a maximum cutoff of 20 sec was imposed. The light stimulus was automatically shut off by a photoelectric relay when the foot moved or when the cut-off time limit was reached.
The experiment of Example 1 was repeated with the exception that animals were first administered 1% carrageenan (200 μL in sterile saline) subcutaneously into the sub-plantar tissue of the left hind paw to stimulate an acute inflammatory reaction.
Two and a half hours later, withdrawal latencies were assessed (‘post-Cg’). One treatment group (7 animals each) was then injected i.p. with vehicle (5% DMSO and 5% Tween-80 in sterile saline). The other treatment groups (8 animals each) were injected i.p. with 3, 10 or 30 mg/kg Compound 7. Thirty minutes after test compound administration withdrawal latencies were recorded.

[4] = test system: Rats (male Sprague Dawley); assay: Visceral hyperalgesia model, colorectal distension after zymosan colitis; format: in vivo, rat; conditions: ± SEM
Protocol: This protocol uses barostat-controlled, isobaric colorectal distensions (CRD) in rats to evaluate the potency and efficacy of test compounds in treating visceral hyperalgesia.
Rats (male Sprague Dawley (275-350 g; CD(SD); Charles River Labs) are housed 2 to 4 animals per cage in a temperature and humidity controlled room with a 12 hr/12 hr light/dark cycle, with ad libitum access to food and water.
One day after release from quarantine, the animals were acclimated to progressively longer (30 min and 4 hr later, 45 min) periods of simple restraint in plexiglas devices (G-3, rat ECU; Braintree Scientific; Braintree Mass.). The animals were returned to their home cages overnight. The next day they were acclimated in the restraint device for 60 min in the morning. 4 hrs later, the animals were lightly anesthetized with 70% CO2:30% O2. A highly compliant, 4 cm long polyethylene balloon, lubricated with K-Y Jelly was then inserted via the anus into the rectum and distal colon. The balloon was positioned such that the aboral end was 1 cm from the anus and was secured in place by taping the balloon catheter to the base of the tail. The catheter was connected to a computerized barostat that controlled the inflation of the balloon and the resulting colorectal distension. The balloon pressure, representing intracolonic pressure, was continuously recorded.
CRD in conscious animals elicits a reflex visceromotor response consisting of contraction of the anterior abdominal wall muscles (Ness T J and Gebhart G F, Colorectal distension as a noxious visceral stimulus: physiologic and pharmacologic characterization of pseudaffective reflexes in the rat, Brain Res., (1988), 450: 153-169). Contraction of these muscles increases intraabdominal pressure and subsequently increases intracolonic pressure. Changes in intracolonic pressure are transduced through the same balloon used to deliver the CRD. The manometric endpoint has recently been reported to mimic electromyographic responses recorded from anterior abdominal wall muscles in rats (Tammpere A, Brusberg M, Axenborg J, Hirsch I, Larsson H and Lindstrom E, Evaluation of pseudo-affective responses to noxious colorectal distension in rats by manometric recordings, Pain, (2005), 116: 220-226)
Stimulus-response data were obtained by delivering two series of 20 sec ramp (15, 30, 45, 60, 75 mmHg) distensions at four-minute intervals and recording the manometric response as follows: the intracolonic pressure signal is passed through a digital 1 Hz highpass filter, rectified and the integral of the initial 15 seconds of the CRD subjected to baseline subtraction (the 15 sec immediately preceding balloon distension); the responses at each distending pressure are averaged to obtain a control stimulus/response curve for each animal. The colorectal balloons were then removed and the animals were returned to their home cages.
The following morning, one treatment group (4 animals) was injected i.p. with 10 mg/kg Compound 7 (solubilized in 5% DMSO and 5% Tween-80 in sterile saline).
One hour later, an acute colitis was induced in all treatment groups by the intracolonic instillation of a 1.5 mL bolus of 2.5% (w/v) zymosan A (from Saccharomyces cerevisiae; Sigma Chemical Co., St. Louis) in 30% ethanol (under light 70% CO2:30% O2 anesthesia). Four hours later, the animals were lightly anesthetized and the colorectal balloons inserted as on the previous day for controlled distensions. The identical CRD stimuli was applied and manometric responses were recorded and analyzed as described for the control phase of the experiment.
The animals in one treatment group (4 animals) were then subcutaneously (s.c.) dosed with 1 mg/kg morphine. As a comparator for analgesic response, animals in another treatment group (9 animals) were dosed s.c. with 3 mg/kg morphine 4 hrs after colitis initiation and 30 min prior to CRD.

[5] = test system: male Sprague-Dawley rats; assay: Carrageenan model of inflammatory pain, radiant heat paw withdrawal, compound given before carrageenan (Example 1); format: in vivo, rat; conditions: 1 h before 1% carrageenan, mean ± SEM, cutoff 20 sec
Protocol: Intraplantar injection of carrageenan (Cg) in a rodent produces pronounced hypersensitivity to both thermal and mechanical stimuli. The effects of carrageenan are maximal 2-4 hr after administration.
as §1, §2
One treatment group (8 animals each) was injected i.p. with vehicle (5% DMSO and 5% Tween-80 in sterile saline). The other treatment groups (8 animals each) were injected i.p. with 3, 10 or 30 mg/kg Compound 7.
One hour later, withdrawal latencies for the animals administered vehicle were recorded. After assessment, all animals were administered 1% carrageenan (200 μL in sterile saline) subcutaneously into the sub-plantar tissue of the left hind paw to stimulate an acute inflammatory reaction. Three hours later, the response time of the animals to the thermal stimulus was evaluated.

In the case of `CN1CCCCC1Cn1cc(C(=O)c2cc([N+](=O)[O-])ccc2I)c2ccccc21` (stereo not shown) [AM1241], the “antinociception to thermal stimuli” value [1] is given as “produces antinociception to thermal stimuli”.

With `O=C(N[C@H](CO)c1ccccc1)c1n[nH]c2c1CCCCC2Cc1cccc(Cl)c1` (stereo partly drawn) [Compound 1, 8-(3-chloro-benzyl)-1,4,5,6,7,8-hexahydro-cycloheptapyrazole-3-carboxylic acid [(1S)-2-hydroxy-1-phenyl-ethyl]-amide] the “% MPE (percent maximal effect)” value ([2]; 10 mg/kg i.p.) was 20.58 ± 9.27 % MPE and the “% MPE (percent maximal effect)” value ([2]; 30 mg/kg i.p.) was 4.25 ± 10.65 % MPE.

With `C[C@H](NS(=O)(=O)/C=C/c1n[nH]c2c1CCCC/C2=C\c1ccc(Cl)cc1)c1ccccc1` [Compound 7, (2E,8E)-2-[8-(4-chloro-benzylidene)-1,4,5,6,7,8-hexahydro-cycloheptapyrazol-3-yl]-ethenesulfonic acid [(1S)-1-phenyl-ethyl]-amide] the “withdrawal latency to radiant thermal stimulus, 0.5 hrs post Cg” value (shortened to “withdrawal latency … 0.5 hrs post Cg”) ([3]; 3 mg/kg i.p. given 2.5 h after carrageenan) was 5.30 ± 0.48 s, the “withdrawal latency … 0.5 hrs post Cg” value ([3]; 10 mg/kg i.p. given 2.5 h after carrageenan) was 5.33 ± 0.48 s and the “withdrawal latency … 0.5 hrs post Cg” value ([3]; 30 mg/kg i.p. given 2.5 h after carrageenan) was 4.53 ± 0.39 s. The “manometric response, percent of initial (control) response” value (“manometric response, percent of initial” below) ([4]; 15 mmHg distension, 10 mg/kg i.p. 1 h before zymosan colitis, n = 4) was 245.7 ± 87.76%, the “manometric response, percent of initial” value ([4]; 30 mmHg distension, 10 mg/kg i.p. 1 h before zymosan colitis, n = 4) was 527.2 ± 196.8% and the “manometric response, percent of initial” value ([4]; 45 mmHg distension, 10 mg/kg i.p. 1 h before zymosan colitis, n = 4) was 301.3 ± 104.2%. The “manometric response, percent of initial” value ([4]; 60 mmHg distension, 10 mg/kg i.p. 1 h before zymosan colitis, n = 4) was 243.7 ± 66.53%, the “manometric response, percent of initial” value ([4]; 75 mmHg distension, 10 mg/kg i.p. 1 h before zymosan colitis, n = 4) was 230.9 ± 51.95% and the “withdrawal latency to radiant thermal stimulus, 3 hrs post Cg administration” value ([5]; 3 mg/kg i.p.) was 8.44 ± 1.88 s. For the same compound, the “withdrawal latency to radiant thermal stimulus, 3 hrs post Cg administration” value ([5]; 10 mg/kg i.p.) was 7.87 ± 1.01 s and the “withdrawal latency to radiant thermal stimulus, 3 hrs post Cg administration” value ([5]; 30 mg/kg i.p.) was 6.05 ± 0.83 s.

With `CN1CC[C@]23c4c5ccc(O)c4O[C@H]2[C@@H](O)C=C[C@H]3[C@H]1C5` [Morphine, morphine, reference compound] the “manometric response, percent of initial” value ([4]; 15 mmHg distension, morphine 3 mg/kg s.c. 4 hrs after colitis initiation, 30 min prior to CRD, n = 9) was 96.34 ± 12.53%, the “manometric response, percent of initial” value ([4]; 30 mmHg distension, morphine 3 mg/kg s.c. 4 hrs after colitis initiation, 30 min prior to CRD, n = 9) was 69.96 ± 11.21% and the “manometric response, percent of initial” value ([4]; 45 mmHg distension, morphine 3 mg/kg s.c. 4 hrs after colitis initiation, 30 min prior to CRD, n = 9) was 61.69 ± 8.72%. The “manometric response, percent of initial” value ([4]; 60 mmHg distension, morphine 3 mg/kg s.c. 4 hrs after colitis initiation, 30 min prior to CRD, n = 9) was 56.33 ± 8.23% and the “manometric response, percent of initial” value ([4]; 75 mmHg distension, morphine 3 mg/kg s.c. 4 hrs after colitis initiation, 30 min prior to CRD, n = 9) was 63.18 ± 9.19%.
